Values joined by “and” are separate entries in the source; they are usually repeats but may differ in a detail not shown here. Identical values can stand only once. Toxic doses and inconclusive results are not listed. Peptide text beside a SMILES is read from it.

The experiment relates to P388 leukemia ip, CD2F1 mice, survival T/C. The experiment is described as follows: NCI In Vivo Anticancer Drug Screen. Data for tumor model P388 Leukemia (intraperitoneal) in CD2F1 (CDF1) mice. The settings on record: endpoint: median survival time, higher = longer survival. An outline of the steps:
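Mice carrying the transplanted tumor received test compound or vehicle. Survival was recorded in each group, and the value is the treated-group measurement divided by that of the vehicle-treated control group.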

Setting [1] is: dose: 60.0 mg/kg/injection, schedule: Q01DX005 (ip), vehicle: saline with Tween-80.
Where [2] appears, read: dose: 120.0 mg/kg/injection, schedule: Q01DX005 (ip), vehicle: saline with Tween-80.
Setting [3] is: dose: 240.0 mg/kg/injection, schedule: Q01DX005 (ip), vehicle: saline with Tween-80.
Setting [4] is: dose: 50.0 mg/kg/injection, schedule: Q01DX009 (ip), vehicle: Klucel (hydroxypropylcellulose) (HPC).
[5] abbreviates: dose: 50.0 mg/kg/injection, schedule: Q01DX009 (ip), vehicle: saline.
The mark [6] stands for this setting: dose: 100.0 mg/kg/injection, schedule: Q01DX009 (ip), vehicle: Klucel (hydroxypropylcellulose) (HPC).
Where [7] appears, read: dose: 100.0 mg/kg/injection, schedule: Q01DX009 (ip), vehicle: saline.
The mark [8] stands for this setting: dose: 200.0 mg/kg/injection, schedule: Q01DX009 (ip), vehicle: saline.
[9] abbreviates: dose: 50.0 mg/kg/injection, schedule: Q01DX009 (ip), vehicle: saline with Tween-80.
Setting [10] is: dose: 100.0 mg/kg/injection, schedule: Q01DX009 (ip), vehicle: saline with Tween-80.
Where [11] appears, read: dose: 200.0 mg/kg/injection, schedule: Q01DX009 (ip), vehicle: saline with Tween-80.
The mark [12] stands for this setting: dose: 25.0 mg/kg/injection, schedule: Q01DX009 (ip), vehicle: saline with Tween-80.
Setting [13] is: dose: 200.0 mg/kg/injection, schedule: Q01DX009 (ip), vehicle: Klucel (hydroxypropylcellulose) (HPC).
Setting [14] is: dose: 50.0 mg/kg/injection, schedule: Q01DX005 (ip), vehicle: saline with Tween-80.
The mark [15] stands for this setting: dose: 100.0 mg/kg/injection, schedule: Q01DX005 (ip), vehicle: saline with Tween-80.
Where [16] appears, read: dose: 100.0 mg/kg/injection, schedule: Q04DX003 (ip), vehicle: saline with Tween-80.
The mark [17] stands for this setting: dose: 200.0 mg/kg/injection, schedule: Q04DX003 (ip), vehicle: saline with Tween-80.

Turning to `CC(=O)NCCc1ccc2c(c1)OCO2`, the T/C reads like this: (dose: 25.0 mg/kg/injection, schedule: Q01DX001 (ip), vehicle: saline + alcohol) 105 % of control; (dose: 50.0 mg/kg/injection, schedule: Q01DX001 (ip), vehicle: saline + alcohol) 99 % of control; (dose: 100.0 mg/kg/injection, schedule: Q01DX001 (ip), vehicle: saline + alcohol) 98 % of control.

Turning to `CCCCC1(C(O)CC)Sc2ccccc2N1C` (centres undefined), the T/C is 100 % of control under setting [1], 101 % of control under setting [2] and 110 % of control under setting [3].

As for `COc1cc2c(c(OC)c1)C(O)=C1C(=O)C3C(O)=C(C(=O)NC(C)(C)C)C(=O)C(NC(=S)c4ccccc4)C3CC1C2` (centres undefined), the T/C was 92 % of control under setting [1], 94 % of control under setting [2] and 101 % of control under setting [3].

In the case of `CN(C)CCC(=O)c1ccc(Cl)c(Cl)c1`, the T/C was 107 % of control under setting [4]; 108 % of control under setting [5]; 109 % of control under setting [6]; 110 % of control under setting [7]; 109 % of control under setting [8].

Regarding `c1ccc(C[N+]23CCN(CC2)CC3)cc1`, the T/C is 109 % of control (dose: 12.5 mg/kg/injection, schedule: Q04DX003 (ip), vehicle: saline); 95 % of control (dose: 25.0 mg/kg/injection, schedule: Q04DX003 (ip), vehicle: saline); 90 % of control (dose: 50.0 mg/kg/injection, schedule: Q04DX003 (ip), vehicle: saline).

`CCOC(=O)C(NC(C)=O)(C(=O)OCC)c1ccc(N)cn1`: the T/C is, setting by setting: (dose: 100.0 mg/kg/injection, schedule: Q04DX003 (ip), vehicle: saline) 99 % of control; (dose: 200.0 mg/kg/injection, schedule: Q04DX003 (ip), vehicle: saline) 103 % of control; (dose: 400.0 mg/kg/injection, schedule: Q04DX003 (ip), vehicle: saline) 98 % of control.

For the compound `O=c1c2ccc(S(=O)(=O)c3ccc4c(=O)n5c6ccccc6nc5c5cccc3c45)c3cccc(c32)c2nc3ccccc3n12`, the T/C was 86 % of control (dose: 60.0 mg/kg/injection, schedule: Q01DX005 (ip), vehicle: Klucel (hydroxypropylcellulose) (HPC)); 88 % of control (dose: 120.0 mg/kg/injection, schedule: Q01DX005 (ip), vehicle: Klucel (hydroxypropylcellulose) (HPC)); 99 % of control (dose: 240.0 mg/kg/injection, schedule: Q01DX005 (ip), vehicle: Klucel (hydroxypropylcellulose) (HPC)).

With `CC(=O)CC(=O)CCCCCCCCCCCC(=O)O`, the T/C was 94 % of control under setting [9], 98 % of control under setting [10] and 103 % of control under setting [11].

As to `CC(=O)N1CCc2cc(N)ccc21`, the T/C under setting [9] is 95 % of control, the T/C under setting [10] was 86 % of control and the T/C under setting [11] is 90 % of control.

As to `CC(=O)O[C@@H]1[C@@H](O)C2=C3[C@]4(C)[C@@H]1C(C)(C)C(=O)C[C@@H]4[C@]3(O)[C@H](OC(C)=O)[C@@]1(C[C@@H]1C)C2=O`, the T/C was 118 % of control (dose: 25.0 mg/kg/injection, schedule: Q01DX009 (ip), vehicle: other) and 115 % of control under setting [12].

As to `Cc1cc(N=Nc2ccncc2C)ccc1N`, the T/C (dose: 6.25 mg/kg/injection, schedule: Q01DX009 (ip), vehicle: saline with Tween-80) was 106 % of control; the T/C (dose: 12.5 mg/kg/injection, schedule: Q01DX009 (ip), vehicle: saline with Tween-80) is 104 % of control; the T/C under setting [12] was 100 % of control; the T/C under setting [9] is 92 % of control.

As for `Clc1cc2nc[nH]c2cc1Cl`, the T/C under setting [9] was 101 % of control and the T/C under setting [10] is 90 % of control.

Turning to `CC1(C)N=C(N)N=C(N)N1c1ccc(CCCCc2ccc(S(=O)(=O)F)cc2)c(Cl)c1`, the T/C is, setting by setting: (dose: 13.2 mg/kg/injection, schedule: Q01DX009 (ip), vehicle: saline) 154 % of control; (dose: 20.0 mg/kg/injection, schedule: Q01DX009 (ip), vehicle: saline) 159 % of control; (dose: 30.0 mg/kg/injection, schedule: Q01DX009 (ip), vehicle: saline) 159 % of control; (dose: 45.0 mg/kg/injection, schedule: Q01DX009 (ip), vehicle: saline) 186 % of control.

In the case of `CCCCCCCCCCCCCCCCOc1cccc(/C(=N/NS(C)(=O)=O)N2CCCCC2)c1`, the T/C under setting [4] is 89 % of control, the T/C under setting [6] was 92 % of control and the T/C under setting [13] is 91 % of control.

In the case of `CNC(=O)n1cc(Cl)ccc1=O`, the T/C is 100 % of control and 108 % of control under setting [5]; 100 % of control and 107 % of control under setting [7]; 119 % of control under setting [8].

`CC(C)c1nc2ccc(Cl)cc2[nH]1`: the T/C under setting [14] is 105 % of control and the T/C under setting [15] is 100 % of control.

On to `NC(=O)C(CCc1nc2ccccc2[nH]1)NS(=O)(=O)c1ccccc1` (centres undefined), for which the T/C was 102 % of control under setting [4], 101 % of control under setting [6] and 102 % of control under setting [13].

Regarding `CCC1CCCC[N+]1(C)[B-](F)(F)F` (centres undefined), the T/C was 105 % of control (dose: 50.0 mg/kg/injection, schedule: Q01DX005 (ip), vehicle: saline) and 107 % of control (dose: 100.0 mg/kg/injection, schedule: Q01DX005 (ip), vehicle: saline).

As to `CC(C)c1ccc(C(CC(=O)C(C)(C)C)C(C(=O)O)c2ccc([N+](=O)[O-])cc2)cc1` (centres undefined), the T/C runs as follows: under setting [4], 109 % of control; under setting [6], 108 % of control.

Turning to `COC(=O)C(C/C(=C/NC(=O)c1ccccc1)NC(=O)c1ccccc1)NC(=O)c1ccccc1` (centres undefined), the T/C was 98 % of control under setting [14]; 98 % of control under setting [15]; 100 % of control (dose: 200.0 mg/kg/injection, schedule: Q01DX005 (ip), vehicle: saline with Tween-80).

With `Nc1ccc(-c2nc3ccccc3c(=O)[nH]2)cc1`, the T/C (dose: 12.5 mg/kg/injection, schedule: Q01DX009 (ip), vehicle: Klucel (hydroxypropylcellulose) (HPC)) is 86 % of control; the T/C (dose: 25.0 mg/kg/injection, schedule: Q01DX009 (ip), vehicle: Klucel (hydroxypropylcellulose) (HPC)) is 100 % of control and 108 % of control and 92 % of control; the T/C under setting [6] was 122 % of control and 90 % of control and 94 % of control; the T/C under setting [13] is 111 % of control.

In the case of `O=[N+]([O-])c1ccc(Sc2ccc([N+](=O)[O-])cc2)cc1`, the T/C (dose: 50.0 mg/kg/injection, schedule: Q04DX003 (ip), vehicle: saline with Tween-80) is 90 % of control; the T/C (dose: 66.0 mg/kg/injection, schedule: Q04DX003 (ip), vehicle: saline with Tween-80) was 90 % of control; the T/C under setting [16] was 100 % of control and 95 % of control; the T/C (dose: 150.0 mg/kg/injection, schedule: Q04DX003 (ip), vehicle: saline with Tween-80) is 90 % of control; the T/C under setting [17] is 90 % of control.

As to `CC12CCC(=O)C1C=CC2=O` (centres undefined), the T/C is 100 % of control (dose: 100.0 mg/kg/injection, schedule: Q04DX003 (ip), vehicle: saline + Tween-80 + alcohol) and 112 % of control (dose: 200.0 mg/kg/injection, schedule: Q04DX003 (ip), vehicle: saline + Tween-80 + alcohol).

For the compound `COC(=O)C1C2C=CC(CC2)C1C(=O)OC` (centres undefined), the T/C under setting [16] was 98 % of control; the T/C under setting [17] was 102 % of control; the T/C (dose: 400.0 mg/kg/injection, schedule: Q04DX003 (ip), vehicle: saline with Tween-80) is 89 % of control.

Take `Fc1ccc(NC(=S)SCc2ccc3c(c2)OCO3)cc1`: the T/C (dose: 50.0 mg/kg/injection, schedule: Q01DX009 (ip), vehicle: suspension in saline) is 101 % of control; the T/C (dose: 100.0 mg/kg/injection, schedule: Q01DX009 (ip), vehicle: suspension in saline) is 101 % of control; the T/C (dose: 200.0 mg/kg/injection, schedule: Q01DX009 (ip), vehicle: suspension in saline) is 116 % of control.

With `CCC(C)C(N)C(=O)N1CCCC1C(=O)O` (stereo not drawn) (H-Ile-Pro-OH; configuration not given here), the T/C runs as follows: (dose: 60.0 mg/kg/injection, schedule: Q01DX005 (ip), vehicle: saline) 98 % of control; (dose: 120.0 mg/kg/injection, schedule: Q01DX005 (ip), vehicle: saline) 98 % of control; (dose: 240.0 mg/kg/injection, schedule: Q01DX005 (ip), vehicle: saline) 102 % of control.

Values taken from PubChem BioAssay AID330 (DTP/NCI, 2004).
